Square brackets hold non-standard residues; d marks the D form. Peptide text beside a SMILES is read from it. pGlu = O=C1CC[C@@H](C(=O)O)N1
What was measured:
IL-1β, IL-6, and TNF-α = test: qRT-PCR of inflammatory cytokine mRNA in hippocampal samples; format: in vivo; details: 5xFAD mice, 2 mg/kg subcutaneous, 3 times/week, 8 weeks, FIG. 7
Procedure: (§1) An efficacy evaluation of GV2001 based on an Alzheimer's disease animal model was conducted according to Table 3 below.
(§2) 5xFAD mice are a well-established mouse model of Alzheimer's disease, in which amyloid-β is produced in neurons. Amyloid-β accumulation begins at approximately 2 months of age, neuronal damage progresses from around 6 months of age, and impairment in spatial learning ability develops from approximately 9 months of age. The mice were purchased from Jackson Laboratory, and seven-month-old mice obtained through breeding were used in the experiment.
mRNA levels of cytokines involved in inflammation (IL-1β, IL-6, and TNF-α) were analyzed using qRT-PCR in mouse hippocampal samples.

[1] = system: retinal pigment epithelial cells (ARPE-19); test: Reactive oxygen species detection with DCF-DA in an H2O2 cell model of age-related macular degeneration; format: cell-based; details: ARPE-19, H2O2 (50 µM), FIG. 14
Procedure: (§3) A cell model of age-related macular degeneration was established by treating the retinal pigment epithelial cell line ARPE-19 with hydrogen peroxide (H2O2) to generate reactive oxygen species.
(§4) The experimental groups were set up according to Table 4 below, and the efficacy of GV2001 was evaluated.
Using 2',7'-dichlorofluorescin diacetate (DCF-DA), a dye for detecting reactive oxygen species, changes in reactive oxygen species levels in retinal pigment epithelial cells (ARPE-19) treated with GV2001 were examined under a fluorescence microscope.

[2] = Pharmacokinetic profile after subcutaneous administration to rats; format: in vivo; details: subcutaneous (SC), Sprague Dawley rats; FIG. 3
Procedure: (§5) To determine the pharmacokinetic profile of GV2001 prepared in Example 1, plasma was collected from rats administered with GV2001. The collected plasma was pretreated by protein precipitation using nine times the volume of methanol containing 0.1% formic acid, followed by centrifugation at 16,100 g for 10 minutes.
(§6) GV2001 and GV1001 were administered subcutaneously (SC) to three Sprague Dawley rats in each group. Blood samples were collected at 0.033, 0.083, 0.17, 0.25, 0.5, 1, and 2 hours after administration. The collected blood samples were centrifuged to separate plasma, pretreated, and analyzed using LC-MS. Pharmacokinetic parameters were calculated using the non-compartmental analysis model of Phoenix WinNonlin (Pharsight ver. 6.4, USA).

5xFAD mice = test: Morris Water Maze Test in an Alzheimer's disease mouse model; format: in vivo; details: 2 mg/kg subcutaneous, 3 times/week, 8 weeks
Procedure: An efficacy evaluation of GV2001 based on an Alzheimer's disease animal model was conducted according to Table 3 below. [TABLE 3] [table] 5xFAD mice are a well-established mouse model of Alzheimer's disease, in which amyloid-β is produced in neurons. Amyloid-β accumulation begins at approximately 2 months of age, neuronal damage progresses from around 6 months of age, and impairment in spatial learning ability develops from approximately 9 months of age. The mice were purchased from Jackson Laboratory, and seven-month-old mice obtained through breeding were used in the experiment. […] On day 11, a probe test was performed. […] In addition, the time spent in the target quadrant was increased in the GV1001 and GV2001 groups, confirming improvements in spatial learning ability (FIG. 4C).

amyloid-β = test: Immunoblot of hippocampal protein samples with anti-amyloid antibody (6E10); format: in vivo; details: 5xFAD mice, 2 mg/kg subcutaneous, 3 times/week, 8 weeks, FIG. 5
Procedure: as §1, §2
In order to determine amyloid-β levels in the brains of each group of mice, immunoblotting was performed on mouse hippocampal protein samples using an anti-amyloid antibody (6E10).

Aβ1-42 = Aβ1-42 ELISA of cerebral cortex protein samples; format: in vivo; details: 5xFAD mice, 2 mg/kg subcutaneous, 3 times/week, 8 weeks, FIG. 6
[3] = system: retinal pigment epithelial cell line ARPE-19; test: Epithelial-mesenchymal transition (cadherin 1, vimentin; confocal microscope) in an H2O2 cell model of age-related macular degeneration; format: cell-based; details: ARPE-19, H2O2 (50 µM), FIG. 15
Procedure: as §3, §4
The degree of epithelial-mesenchymal transition (EMT), which indicates retinal pigment epithelial cell degeneration, was evaluated by observing changes in cadherin 1, an epithelial cell marker, and vimentin, a mesenchymal cell marker, using a confocal microscope.

amyloid-β plaques = test: Thioflavin-S staining of brain tissue sections; format: in vivo; details: 5xFAD mice, 2 mg/kg subcutaneous, 3 times/week, 8 weeks
Procedure: as §1, §2
(§7) Mouse brain tissue sections were stained with thioflavin-S and anti-amyloid antibody (6E10) to identify amyloid-β plaques and amyloid-β protein, respectively.

[4] = Pharmacokinetic profile after intravenous administration to rats; format: in vivo; details: Sprague Dawley rats, FIG. 2
Procedure: as §5
as §6, with “intravenously (IV)” for “subcutaneously (SC)”, “of the” for “of”, “(Pharsight,” for “(Pharsight”, “USA) program.” for “USA).”

amyloid-β protein = test: Anti-amyloid antibody (6E10) staining of brain tissue sections; format: in vivo; details: 5xFAD mice, 2 mg/kg subcutaneous, 3 times/week, 8 weeks; both the cerebral cortex and hippocampus; FIGS. 10 and 11
Procedure: as §1, §2, §7

[5] = Stability in human plasma (LC-MS, residual peptide); format: in vitro ADME; details: 5 µM, 37 °C, 10, 60 and 240 minutes, FIG. 1
Procedure: GV2001 and GV1001 were each added to human plasma and diluted to a concentration of 5 µM, followed by incubation at 37 °C for 10, 60, and 240 minutes with stirring. The reaction mixture was collected and pretreated by plasma protein precipitation using methanol containing 0.1% formic acid. The resulting supernatants were collected and analyzed by LC-MS under the conditions shown in Table 1 below to determine the percentage of residual peptide relative to the initial peptide amount.

microglia = test: Anti-Iba-1 antibody staining of brain tissue sections (gliosis); format: in vivo; details: 5xFAD mice, 2 mg/kg subcutaneous, 3 times/week, 8 weeks, FIGS. 12 and 13
Procedure: as §1, §2
Mouse brain tissue sections were stained with an anti-Iba-1 antibody, which stains microglia, to analyze the level of gliosis in the mouse brain.

[6] = H2O2 for 2 hours then post-treatment for 24 hours, high-dose group
[7] = pretreatment for 2 hours then H2O2 for 24 hours, low-dose group

in vivo stability (remaining in the body without degradation) [2]: greater in vivo stability than GV1001 | AUCt of GV2001 relative to GV1001 [4]: more than four times higher | AUC(0-t) ([4]; rat, plasma, sampling up to 2 hours): 107 ng·h/mL
Structure (SMILES): CC[C@H](C)[C@H](NC(=O)[C@H](Cc1ccccc1)NC(=O)[C@H](CCCNC(=N)N)NC(=O)[C@H](CC(C)C)NC(=O)[C@H](CCCNC(=N)N)NC(=O)[C@H](CO)NC(=O)[C@@H](NC(=O)[C@H](CC(C)C)NC(=O)[C@H](CC(C)C)NC(=O)[C@H](C)NC(=O)[C@@H]1CCCN1C(=O)[C@H](CCCNC(=N)N)NC(=O)[C@H](C)NC(=O)[C@H](CCC(=O)O)NC(=O)[C@@H]1CCC(=O)N1)[C@@H](C)O)C(=O)N1CCC[C@H]1C(=O)N[C@@H](CCCCN)C(N)=O [GV2001] ([pGlu]EARPALLTSRLRFIPK-NH2)
mRNA levels of cytokines involved in inflammation (IL-1β, IL-6, and TNF-α) (IL-1β, IL-6, and TNF-α): greater reduction in cytokine expression compared to the 5xFAD group | DCF-DA fluorescence expression (reactive oxygen species) [1, 6]: decreased | DCF-DA fluorescence expression (reactive oxygen species) [1, 7]: decreased | latency to locate the hidden platform (5xFAD mice; 10-day training period, FIG. 4A): marked improvements in latency | number of platform-zone crossings (5xFAD mice; probe test on day 11, FIG. 4B): exhibited improvements | time spent in the target quadrant (5xFAD mice; probe test on day 11, FIG. 4C): increased | amyloid-β levels (immunoblot, 6E10) (amyloid-β): reduction | amyloid-β levels (Aβ1-42 ELISA) (Aβ1-42): reduced level of amyloid-β protein | progression of EMT (cadherin 1, vimentin) [3, 6]: reduced the progression of EMT | progression of EMT (cadherin 1, vimentin) [3, 7]: reduced the progression of EMT | amyloid-β plaque deposition (thioflavin-S) (amyloid-β plaques; cerebral cortex, FIG. 8): reduction in amyloid-β plaque deposition | amyloid-β plaque deposition (thioflavin-S) (amyloid-β plaques; hippocampus, FIG. 9): substantially reduced plaque deposition | amyloid-β protein levels (6E10 antibody staining) (amyloid-β protein): more pronounced decrease in amyloid-β protein levels | percentage of residual peptide relative to the peptide amount before reaction [5]: higher at each time point than that of GV1001 | gliosis levels (microglia staining, anti-Iba-1) (microglia): more pronounced decrease in gliosis levels

Reference: patent publication EP4733310A1, “NOVEL PEPTIDE AND USE THEREOF” (Gemvax & Kael Co., Ltd., priority 2023, dated 2024)
